# Results reported in patent US6194169A, “Enhanced expression of human platelet-derived growth factor in Pichia pastoris” (The University of Kentucky Research Foundation, priority 1998, dated 2001).
# Experiments:
# [1] = tested on: PDGF α-receptor; test: Radioreceptor assay (RRA), competition with [125I]PDGF-BB in A204 cells; type: binding; conditions: A204 cells (α isotype only); [125I]PDGF-BB radioligand; Pichia-expressed protein; ALLFIT fit
# Procedure: (§1) Radioreceptor assays were conducted in A204 and rat mesangial cells (RMC, R52 line) as described previously using 20,000 cpm of [^125 I]PDGF-BB (1200 Ci/mmol; Amersham, Buckinghamshire, England) as radioligand and unlabeled recombinant PDGF-BB proteins as competitor. Mitogenic activities of recombinant PDGF-BB proteins were determined by measuring [^3 H]thymidine incorporation into cells as described.
# [2] = tested on: PDGF β-receptor; test: Radioreceptor assay (RRA), competition with [125I]PDGF-BB in R52 rat mesangial cells; type: binding; conditions: R52 cells (β isotype); [125I]PDGF-BB radioligand; Pichia-expressed protein; ALLFIT fit
# Procedure: as §1
# [3] = tested on: NR6 cells; test: Mitogenesis, [3H]thymidine incorporation in NR6 cells; type: cell-based; conditions: NR6 cells (primarily α-receptors), ALLFIT fit
# Procedure: as §1
# [4] = tested on: PDGF α-receptor; test: In vitro PDGF receptor autophosphorylation in A204 cells; type: cell-based; conditions: 170 kDa PDGF receptor species
# Procedure: In vitro assays of PDGF receptor autophosphorylation were conducted essentially as described. […] ATP (3000 Ci/mmol) for 10 min at 30° C. Immunoprecipitates were analyzed by SDS-PAGE (6% polyacrylamide).
# [5] = tested on: PDGF β-receptor; test: In vitro PDGF receptor autophosphorylation in R52 cells; type: cell-based, rat; conditions: 170 kDa PDGF receptor species
# Procedure: In vitro assays of PDGF receptor autophosphorylation were conducted essentially as described. A204 and R52 cells (obtained from the American Type Culture Collection (ATCC) were grown to near confluence on 100-mm plastic dishes and maintained in low mitogenicity medium for 24 h. Cells were pre-chilled at 4° C. for 60 min and then incubated with PDGF-BB preparations for 10 min at 4° C. Cell lysates were incubated with either anti-PDGFRα or anti-PDGFRβ IgG (Santa Cruz Biotechnologies) for 60 min at 4° C., centrifuged for 10 min and incubated in fresh tubes containing protein A-agarose (Sigma) for 60 min at 4° C. Kinase assays were performed in 25 μL kinase buffer (20 mM Tris HCl, 1 mM DTT, 10 mM MnCl2, pH 7.5) and 5 μCi [γ-^32 P] ATP (3000 Ci/mmol) for 10 min at 30° C. Immunoprecipitates were analyzed by SDS-PAGE (6% polyacrylamide).
# [6] = Heparin-agarose in vitro batch binding assay; conditions: 200 mM NaCl, 40 mM Hepes pH 7.4; 3 μg protein; bound fraction by ELISA
# Procedure: Mixtures containing 300 μL of a 50:50 slurry of heparin-agarose in 200 mM NaCl, 40 mM Hepes, pH 7.4 were incubated with 3 μg of PDGF-BB proteins for 15 min at 23° C. Supernatants were obtained by microcentrifugation and collected with a 23 G needle. Pellets were washed with 300 μL of buffer, which was combined with the first supernatant ("unbound" PDGF). Pellets were then washed twice with 150 μL of buffer containing 1 M NaCl, and supernatants were pooled (high salt wash fraction, or "bound" PDGF). PDGF-BB content of bound and unbound fractions were determined by ELISA.
# [7] = tested on: human glioblastoma (U87) cells; test: Tumor growth of stably transfected U87 cells in athymic nude mice; type: in vivo; conditions: 10^7 transfected U87 cells s.c. in athymic nude mice
# Procedure: Transfections and stable expression in the human glioblastoma cell line U87 were performed using a liposomal reagent (Lipofectin™) (Gibco/BRL; Gaithersburg, Md.), as described. Cells were cultured in 162 cm^2 flasks in complete DMEM. On the day of injection, cells were removed by trypsinization, rinsed twice with Hanks balanced salt solution (HBSS, without phenol red; Gibco/BRL), and resuspended in 300 μL HBSS. Cells (10^7) from exponentially growing cultures of stable U87 transfectants were injected subcutaneously between the scapulae of 9-week-old athymic nude mice (Harlan Sprague-Dawley, nu/nu) using a 1 cc tuberculin syringe equipped with a 23-gauge needle. Two-dimensional measurements of tumors were obtained with vernier calipers.
# [8] = PDGF-BB expressed in Saccharomyces cerevisiae, Craig et al. (1992); cited from earlier work
Substance,RRA: IC50 α [1] [ng/mL],RRA: IC50 β [2] [ng/mL],Mitogenesis ED50 [3] [ng/mL],induction of α-receptor autophosphorylation (in words) [4],induction of β-receptor autophosphorylation (in words) [5],"heparin-binding, protein in the bound fraction [6] [%]",effect of overexpression on U87 tumor growth in vivo vs Neo controls (in words) [7],Structure (%) Beta [8] [%],Structure (%) Helix [8] [%],Structure (%) Random [8] [%]
WT-RKK: human PDGF B-chain (PDGF-BB homodimer) with wild-type loop III residues Arg Lys Lys (RKK),9.2,4.0,52,dose-dependent autophosphorylation,dose-dependent autophosphorylation,~100,not significantly different,,,
"PDGF-BB: wild-type human PDGF-BB expressed in Saccharomyces cerevisiae, CD data as reported by Craig et al. (1992)",,,,,,,,51.0,4.0,45.0
A-WT-RKK: wild-type PDGF A-chain overexpressed from cDNA in stably transfected U87 cells,,,,,,,not significantly different,,,
